Values after ≈ are worked out from the molar mass of the structure shown.
Experiments:
physchem = assay type: physicochemical
Experimental: A chemical molecule (compound B) is presented with a low molecular weight. […] The solubility is increased up to 8 mg/ml in PEG200.
A calpain inhibitor (PD 150606) is presented, having a low molecular weight of 306 Da. […] The solubility is increased up to 8 mg/ml in PEG200.

[1] = Active loading of pre-formed liposomes (encapsulation efficiency, final product); assay type: physicochemical; details: solubilized in pure PEG200 and HPβCD; same pre-formed liposomes (calcium acetate)
Experimental: Liposomes may consist of different phospholipids and cholesterol in several molar ratios in order to modify the transition/processing temperature and particle stability in plasma. […] Components are dissolved in ethanol or iso-propanol. Additionally, for the purpose of increasing the (in vivo) particle stability and enhanced brain delivery, micelles consisting of DSPE-PEG-GSH (up to 5 mol %), which is synthesized before preparation of the liposomes using DSPE-PEG-MAL and fresh solutions of reduced glutathione, and/or DSPE-mPEG (Mw 2000) may be added to the solution at different mol-percentages (up to 5-10 mol % in total). The (lipid) mixture is injected in aqueous solutions containing active loading buffer of different ionic strengths (1-1000 mM), e.g. 2 mg/mL ammonium sulfate or 1 mg/mL calcium acetate. After stirring, the formed vesicles are either extruded through membranes or homogenized in an emulsifier to create liposomes of a uniform size. Alternatively, DSPE-PEG-GSH or DSPE-mPEG is added after preparation of the liposomes by incubation at 25° C. up to 60° C. for 2 up to 24 hours (depending on the phase transition temperature of the lipid mixture and the temperature sensitivity of the agent). […]
The compound is measured with UV at 295 nm at concentrations between 5-60 μg/ml. […]

[2] = pH 7, aqueous with cosolvent or surfactant or cyclodextrin

SMILES	solubility (physchem; 20 °C) [µg/mL]	solubility (physchem; aqueous with cosolvent or surfactant or cyclodextrin) [µg/mL]	solubility (physchem; [2]) [µg/mL]	active loading into pre-formed liposomes [1]	solubility in PEG200 (physchem)	solubility in water (physchem)	stability at basic pH (physchem)	solubility (physchem; pH 5, aqueous buffer) [µg/mL]	solubility (physchem; pH 6, aqueous buffer) [µg/mL]	solubility (physchem; pH 7, aqueous buffer) [µg/mL]	solubility (physchem; pH 8, aqueous buffer) [µg/mL]
C[C@@H](Oc1cc(-c2cnn(C3CCNCC3)c2)cnc1N)c1c(Cl)ccc(F)c1Cl [Crizotinib]	< 100	2200 (≈ 4890 µM)	≥ 5000								
O=C(O)/C(S)=C/c1ccc(I)cc1 [PD 150606]				no active loading	up to 8 mg/ml	below 0.05 mg/ml	decomposes				
O=C(O)c1cccnc1C(=O)O [quinolinic acid]			≤ 2200					3 (≈ 18 µM)	20 (≈ 120 µM)	350 (≈ 2090 µM)	900 (≈ 5390 µM)

From patent publication US20130337051A1, “ADVANCED ACTIVE LIPOSOMAL LOADING OF POORLY WATER-SOLUBLE SUBSTANCES” (priority 2011, published 2013)
